Test results taken from US12098352B2, “Stem cell-based lung-on-chip models” (EMULATE, INC., priority 2018, dated 2024).
“Also recorded” adds a separate entry of the source.

Experiments:
[1] = test system: ICAM1; experiment: ICAM1 immunostaining of endothelial cells (HMECs) lining the vascular surface of the Chip; type: cell-based, human
Description: FIG. 22A Effect of LPS on Vascular Expression of ICAM1. […] Representative images (20×) of endothelial cells (HMECs) lining the vascular surface of the Chip fixed and stained for ICAM1 (red) at 24 h post LPS treatment of the alveolar epithelial compartment. Nuclei are colored blue. […] IL-6, il-8 and MCP-1 have 40-90 fold increases in relation to untreated controls. FIG. 22C Detection of exemplary Lung-Specific Cytokines and Chemokines, IL-6; IL-8; MCP-1 and RANTES, in response to LPS stimulation. Co-cultures of Epithelium/Fibroblasts/Vasculature induced higher levels of cytokines than co-cultures of Epithelium/Vasculature; Fibroblasts/Vasculature or Vasculature alone.
Interconnectivity refers to the observation that adding a compound to the epithelial side may induce a cytokine mediated response in the endothelial side. […] In other words, inflamed epithelial cells modulate function of the endothelial cells.
Open-Top Organ-Chips were fixed in 10% neutral buffered formalin. Endothelial cells were stained inside the chip by performinutesg the immunofluorescence steps described below directly inside the microfluidic channel. Stroma equivalents were stained as described by the step below inside the chip or alternatively extracted from the chip and processed for immunohistochemistry analysis. […]

[2] = test system: platelets; experiment: Blood perfusion of LPS pretreated Alveolar-chip vascular channel; type: cell-based, human; conditions: LPS pretreated (inflamed) chip
Description: For further validation on the functionality of the endothelial compartment, the vascular compartment comprising an endothelial cell lining, was exposed to blood under flow. In one embodiment, an LPS pretreated microfluidic Alveolar-chip was perfused with blood, i.e. blood was flowed through the spiral channel. In one embodiment, a sample of human blood, e.g. 5 ml of whole blood isolated the same day from a healthy person (e.g. in citrate or heparin anticoagulation compounds) was perfused through the bottom spiraled channel with Ca2+ and Mg2+ to counteract the anticoagulation compounds, at 30 ml/hour. […] Left, schematic diagrams of the upper channels blue and ports blue dots, and spiral lower vascular endothelial channel red and ports red dots. […] Larger pink areas represent aggregation of platelets and adhered platelets are observed at the lower sharp bend.

[3] = test system: Alveolus-Chip epithelium/endothelium barrier; experiment: Barrier function assay (fluorescent dextran / Lucifer Yellow leakage) in Open-Top Alveolus-Chip; type: cell-based, human
Text: We studied interaction between different chip compartments by perturbating the system with biological and chemical stressors such as LPS, and H2O2 which are known to induce a reversible disruption of the cellular monolayer after acute administration both in vivo and in vitro. […] The presence of a strong barrier is indirectly confirmed by the presence of continuous pattern of E-cad and VE-cad in the monolayer of Alveolar epithelial and endothelial cell, respectively.
Given the limited availability of in vitro models that can closely mimic human alveolar epithelium function and/or its disease states, we explored whether a microfluidic Alveolus-Chip lined with the primary alveolar epithelial cells on an artificial lung stroma with embedded primary lung fibroblasts and pulmonary microvascular endothelial cells would model a lung injury state. To test this, we exposed the Alveolus-Chips to an acute damage generated by exposure to H2O2 under continuous infusion through the epithelium top channel, similarly to as it is […] administered in mice.
Air-Liquid interface was replaced by phenol red free MEM (GIBCO: 51200-038) and medium in the bottom fluidical spiraled channel substituted by one containing 1 mg/ml Lucifer Yellow CH, Lithium Salt (ThermoFisher: L453) or 0.1 mg/ml Dextran, Fluorescein, 3000 MW, Anionic, Lysine Fixable (ThermoFisher: D3306). Leakage of the fluorescent probe from the lumen of the spiraled channel to the epithelial compartment was collected from the outlet reservoirs after indicated hours of perfusion. The fluorescence intensity was measured with a 96-well fluorimeter at excitation/emission indicated by the manufacturer.

[4] = test system: epithelium-endothelium co-culture perfused with human whole blood; conditions: LPS treatment of the alveolar lumen of epithelium-endothelium co-culture; cited from earlier work
[5] = test system: cellular monolayer barrier; experiment: Barrier function in static transwell; type: cell-based; conditions: doses up to 100 ng/ml LPS, 10 mM H2O2

Lipopolysaccharide [LPS]
ICAM expression, endothelial cells exposed directly ([1]; LPS directly on endothelial cells, no epithelium): does not induce expression of ICAM | vascular expression of ICAM1 ([1]; LPS on the alveolar epithelial compartment, 24 h): induced vascular expression of ICAM1; also recorded: induces expression of ICAM on endothelial cells; also recorded: induces ICAM1 expression only in presence of epithelial cells | platelet response on blood perfusion [2]: platelet adhesion and aggregation | effect of stressor on barrier function ([3]; LPS 10 ng/ml and/or H2O2 10 mM): causes barrier breakdown and disruption of intracellular junction | reversibility of barrier breakdown after removal of stressor ([3]; additional 2 days in fresh medium): barrier breakdown in our chip was reversable | thrombotic events [4]: triggered thrombotic events | loss of barrier function [5]: dose dependent loss of barrier function
